# Key:
# [1] = test system: mouse genetic models of human Dravet syndrome and idiopathic autism; assay: Summary: low-dose treatment of mouse models of autism; format: in vivo, mice; conditions: low doses that do not induce sedative or anxiolytic effects
# Excerpt: The present disclosure describes methods effective in the rescue or amelioration of autism-like behavior, cognitive deficit, and context-dependent spatial memory.
# In particular embodiments, these methods comprise the administration of low doses of a benzodiazepine to a human or other mammalian subject in order to rescue autism-like behavior, cognitive deficit, and context-dependent spatial memory. […] At such low doses, the administration of benzodiazepines, such as CLZ, to mammalian subjects will result in improvement of autism-like behavior, cognitive deficit, and context-dependent spatial learning and memory with much lower levels of sedation compared to mammalian subjects who receive typical higher doses of CLZ or other benzodiazepines that are used for treatment of anxiety, insomnia, or seizure.
# The present disclosure is also directed to methods of rescuing or ameliorating indicia of Autism Spectrum disorders, autism-like behavior, cognitive deficit, and context-dependent spatial learning and memory in Dravet syndrome or idiopathic autism with α-2,3-specific GABA-A receptor positive allosteric modifiers. Such α-2,3-subunit selective GABA-A receptor positive allosteric modifiers include L838,417.
# Therapeutic approaches to treat autistic traits in animal studies or in clinical trials have primarily focused on reducing excitatory neurotransmission in glutamatergic synapses to rebalance E/I ratio in autistic brain (Michalon et al., 2012; Yang et al., 2012). However, autistic-like behaviors in ASD mouse models are only partially reversed by drugs that inhibit excitatory neurotransmission, and these drugs also have unwanted side effects on wild-type mice (Henderson et al., 2012; Michalon et al., 2012; Yang et al., 2012). To overcome these drawbacks, the inventors focused on the opposing side, the GABAergic inhibitory transmission in autistic brain. Their results highlight the potential for therapy of autistic-like behaviors and cognitive deficit in ASD by low-dose treatment with subunit-selective benzodiazepines and other positive allosteric modulators of GABA-A receptors. […] It is possible that the biphasic dose-response relationship of the positive allosteric modulators reflects their actions on receptors containing α2,3 subunits at low doses and on receptors containing α1 subunits at higher doses.
# Scn1a+/− mice = assay: Three-chamber social preference test; format: in vivo; conditions: low doses, narrow dose range (FIGS. 41N, 41O)
# Excerpt: The mouse was allowed to freely explore each chamber. […] The recorded video file was further analyzed by off-line video tracking software (ETHOVISION™ XT 7.0). […] All data shown are means±s.e.m. and analyzed using two-way ANOVA with Bonferroni's post hoc analysis and one-way ANOVA with Tukey's post hoc analysis.
# Oral administration is specifically contemplated for the methods described herein, and is well known for both benzodiazepines and non-BDZ GABA-A enhancers as described herein.
# (§1) The test was performed as described previously (Han et al., 2012) with minor modifications. The threechamber apparatus is a non-transparent Plexiglas box (30×60 cm) with two transparent partitions that make left, center, and right chambers (30×20 cm). In the first 10-min session, a test mouse was placed in the center of the empty three-chamber unit to habituate the test mouse. The mouse was allowed to freely explore each chamber. In the second 10-min session, an age- and gender-matched same strain mouse that had never been exposed to the test mouse, was placed in one of the two wire cages. The empty wire cage as an inanimate object cue was placed on the other side. Then, the test mouse was placed again in the center, and allowed to freely explore the chamber for 10 min. Time spent in each chamber, and time spent within a 5 cm radius proximal to each wire cage, as a close interaction were measured by the videotracking software (EthoVision XT 8.5, Noldus Technology). All data shown are means±s.e.m. and analyzed using two-way ANOVA with Bonferroni's post hoc analysis and one-way ANOVA with Tukey's post hoc analysis.
# (§2) L-838,417, and DMCM (Sigma), dissolved in 100% DMSO (sterile, Sigma) was diluted in PBS (the final concentration of DMSO was ranged from 0.005% to 0.1%). Drugs were administered by an intraperitoneal injection in a volume of […] 30 min before the behavioral tests.
# BTBR mice [2] = assay: Three-chamber social interaction test; conditions: for social interaction (time with stranger mouse, close interaction), dose series: single i.p. injection 30 min before test, low/increasing doses
# Protocol: In the three-chamber test, a test mouse is placed in the center chamber, and the preference of the test mouse for interaction with an inanimate object (a small empty cage) in the left chamber vs. a stranger mouse in an identical cage in the right chamber using a digital camera and quantitative video-tracking analysis.
# as §1, §2
# C57BL/6J mice = assay: Three-chamber social interaction test; format: in vivo
# Excerpt: The mouse was allowed to freely explore each chamber.
# BTBR mice [3] = assay: Context-dependent fear conditioning test; format: in vivo; conditions: 0.05 mg/kg
# Excerpt: The contextual fear-conditioning chamber was a square arena (25×25 cm) with clear PLEXIGLAS™ walls and a metal grid floor connected to a circuit board that delivered shocks to the metal grid (COULBOURN INSTRUMENTS™). An analog camera was attached on top of the chamber. The camera and the circuit board were connected to a personal computer, and its software (FREEZE FRAME™ 2.0, ACTIMETRICS™) controlled the circuit and recorded the data. The chamber was cleaned with 70% ethanol and wiped with paper towels before each session. In the habituation session, a test mouse was placed in the chamber and allowed to explore for 2 min^66-69. Immediately after habituation, the test mouse received a single mild foot shock (2 s, 0.5 mA). After staying in the chamber one more min, the mouse was removed from the chamber. For the 30-min short-term memory test, the mouse was returned to the context 30 min after the end of the training session. For 24-hr long-term memory test, the mouse was returned to the context 24 hr after the training session. The movement of mice was also recorded by a USB webcam (LIFECAM™ HD-6000, MICROSOFT™) and PC-based video capture software (WINAVI™ Video Capture, ZJ MEDIA DIGITAL TECHNOLOGY™) for 2 min. The recorded video file was further analyzed by off-line video tracking software (ETHOVISION™ XT 7.0, NOLDUS TECHNOLOGY™). The freezing scores were calculated by dividing the test session into 1 min bouts and averaging together all 2 min for each animal. All data shown.
# Freezing behavior is defined as the period during which the velocity of the test mouse is less than 1.75 cm/s, and non-freezing behavior is defined as the period during which the velocity of the mouse is greater than 2 cm/s.
structure (smiles),measurement,setting,value
Cc1ccc(-c2nc3ccc(C)cn3c2CC(=O)N(C)C)cc1 [zolpidem],autistic-like behaviors and cognitive deficit in BTBR mice (summary),[1],opposite effects
same,social interactions in three-chamber test,Scn1a+/− mice,not effective
same,social behavior (close interaction),BTBR mice [2]; 0.5 mg/kg,made social behavior worse
same,sedation / total distance moved during the three-chamber test,BTBR mice [2]; dose range up to 0.5 mg/kg (clonazepam: test doses),dose-dependently decreased
same,total movement during the three-chamber test at high dose,"BTBR mice [2]; high doses, zolpidem 0.5 mg/kg",significantly decreased
same,effect on social interaction at doses above the maximally effective dose,BTBR mice [2]; higher doses,aggravated their social interaction deficit at high doses
same,"social interaction (time with stranger mouse, close interaction), dose series",BTBR mice [2],failed to show beneficial effects
same,"social interaction (time with stranger mouse, close interaction), dose series",BTBR mice [2]; listed as Zolpidem,failed to rescue social deficit
same,"social behavior, dose series","C57BL/6J mice; L-838,417 / zolpidem (FIGS. 45I, 45J)",dose-dependently impaired
same,social behavior at high dose,C57BL/6J mice; high dose,impaired
same,long-term (24 h) memory,BTBR mice [3],not long-term memory
same,short-term (30 min) memory,BTBR mice [3],enhanced short-term memory
